Experimental data from ChEMBL document CHEMBL1201862, “PubChem BioAssay data set” (2004).
Where a name gives a salt, the structure may show the parent alone. Calls of active or inactive are those of the source.

Key:
[1] = target: RNA-editing ligase 1, mitochondrial (Trypanosoma brucei brucei, UniProt P86926); assay: TbREL1 ligase inhibitors, dose response, biochemical, fluorescence, Trypanosoma brucei (AID 1117295); type: functional
Major prion protein = Major prion protein (Homo sapiens, UniProt P04156); type: functional, cell-based
cells [2] = assay: cells
[3] = Late stage counterscreen for inhibitors of Trypanosoma brucei methionyl tRNA synthetase (MetRS): Luminescence-based cell-based high throughput dose response assay to identify compounds that are cytotoxic to Jurkat human T lymphocyte cells.; type: functional
[4] = cytotoxicity toward NIH3T3 fibroblasts, dose response, counter-screen, cell-based, ATP luminescence, mouse fibroblasts (AID 2010); type: functional;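 further: cells exposed to compound for about 90 hours before reading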
cells [5] = assay: cells; remark: listed apart in the source
[6] = inhibitors of intracellular T. cruzi replication, confirmation, NIH3T3 host cells, beta-gal luminescence (AID 2044); type: functional, cell-based;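 further: intracellular parasites grown in NIH/3T3 mouse fibroblasts as host cells; luminescent beta-galactosidase reporter signal from transgenic T. cruzi replicating inside host cells; inhibitors lower the luminescence signal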
[7] = Luminescence Cell-Based Dose Retest to Confirm Inhibitors of Cancer Stem Cells. [Related pubchem assays (depositor defined):AID2717, AID2721]; type: functional; details: Homo sapiens
[8] = Counterscreen for inhibitors of Trypanosoma brucei methionyl tRNA synthetase (MetRS): Luminescence-based cell-based high throughput dose response assay to identify compounds that are cytotoxic to Jurkat human T lymphocyte cells.; type: functional
[9] = target: T1, Methionyl-tRNA synthetase, putative (Trypanosoma brucei brucei, UniProt Q38C91); type: functional, Trypanosoma brucei brucei strain 927/4 GUTat10.1
T1 sequence (Q38C91 whole entry): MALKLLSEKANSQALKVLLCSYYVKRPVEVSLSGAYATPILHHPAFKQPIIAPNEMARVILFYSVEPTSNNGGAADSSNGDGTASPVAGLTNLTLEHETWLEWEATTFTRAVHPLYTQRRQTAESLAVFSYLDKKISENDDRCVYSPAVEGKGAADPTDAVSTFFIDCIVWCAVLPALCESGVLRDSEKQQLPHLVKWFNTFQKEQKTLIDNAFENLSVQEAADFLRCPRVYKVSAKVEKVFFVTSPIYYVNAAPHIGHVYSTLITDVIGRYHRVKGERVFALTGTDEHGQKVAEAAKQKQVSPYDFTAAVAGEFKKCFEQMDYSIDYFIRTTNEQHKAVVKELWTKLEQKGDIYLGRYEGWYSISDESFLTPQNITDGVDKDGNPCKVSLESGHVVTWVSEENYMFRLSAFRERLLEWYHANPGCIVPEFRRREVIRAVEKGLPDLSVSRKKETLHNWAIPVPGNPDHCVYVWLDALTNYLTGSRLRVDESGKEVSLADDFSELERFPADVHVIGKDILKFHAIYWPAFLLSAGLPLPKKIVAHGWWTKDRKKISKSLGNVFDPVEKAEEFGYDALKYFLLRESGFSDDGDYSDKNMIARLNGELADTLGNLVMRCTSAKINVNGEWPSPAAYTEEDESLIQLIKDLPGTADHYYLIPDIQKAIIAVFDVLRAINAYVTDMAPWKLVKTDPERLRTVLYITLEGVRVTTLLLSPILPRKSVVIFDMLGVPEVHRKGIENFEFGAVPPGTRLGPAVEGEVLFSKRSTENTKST

[10] = target: T1, Methionyl-tRNA synthetase, putative; type: functional, Trypanosoma brucei brucei strain 927/4 GUTat10.1; remark: listed apart in the source
[11] = target: T2, Oxysterols receptor LXR-beta (Homo sapiens, UniProt P55055); type: functional, cell-based
T2 sequence (P55055 whole entry): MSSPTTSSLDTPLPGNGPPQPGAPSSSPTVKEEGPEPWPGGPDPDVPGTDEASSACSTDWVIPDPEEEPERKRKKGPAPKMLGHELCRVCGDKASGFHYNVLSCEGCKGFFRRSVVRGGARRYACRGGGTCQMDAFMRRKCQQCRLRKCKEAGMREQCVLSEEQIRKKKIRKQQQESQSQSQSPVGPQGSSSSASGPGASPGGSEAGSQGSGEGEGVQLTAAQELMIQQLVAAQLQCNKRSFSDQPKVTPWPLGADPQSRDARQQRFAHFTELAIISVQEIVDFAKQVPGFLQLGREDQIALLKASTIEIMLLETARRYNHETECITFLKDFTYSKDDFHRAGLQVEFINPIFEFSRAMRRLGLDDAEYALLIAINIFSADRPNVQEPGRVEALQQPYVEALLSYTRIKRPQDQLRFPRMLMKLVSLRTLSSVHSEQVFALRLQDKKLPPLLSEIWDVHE

[12] = target: Endoplasmic reticulum aminopeptidase 1 (Homo sapiens, UniProt Q9NZ08); assay: ERAP1 aminopeptidase inhibitors, dose response, biochemical, cherry-pick, set 2, plate reader (AID 743314)
[13] = target: Solute carrier family 12 member 2/member 5 (Homo sapiens, UniProt P55011+Q9H2X9); assay: KCC2 and NKCC1 inhibition by rubidium flux, cell-based, NKCC1 counter-screen (AID 1734); type: functional, HEK293
Prothrombin = Prothrombin (Homo sapiens, UniProt P00734); assay: Thrombin 1536 HTS Dose Response Confirmation. [Related pubchem assays: 1046 (Thrombin 1536 HTS; hits were confirmed in this assay)]; type: functional
[14] = target: T3, Dual specificity protein phosphatase 6 (Rattus norvegicus, UniProt Q64346); assay: MKP-3 phosphatase inhibitors, primary screen, biochemical, rat enzyme, in vitro (AID 425)
T3 sequence (Q64346 whole entry): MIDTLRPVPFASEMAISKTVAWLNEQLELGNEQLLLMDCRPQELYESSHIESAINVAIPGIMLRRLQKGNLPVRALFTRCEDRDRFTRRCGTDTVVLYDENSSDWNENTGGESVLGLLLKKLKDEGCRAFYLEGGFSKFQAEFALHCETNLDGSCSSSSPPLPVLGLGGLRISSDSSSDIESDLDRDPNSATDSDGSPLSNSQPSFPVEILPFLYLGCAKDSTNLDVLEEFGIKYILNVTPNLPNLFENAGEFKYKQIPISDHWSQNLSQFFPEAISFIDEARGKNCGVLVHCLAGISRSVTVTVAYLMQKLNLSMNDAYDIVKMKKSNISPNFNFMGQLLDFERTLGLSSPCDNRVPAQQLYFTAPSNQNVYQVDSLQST

[15] = target: Induced myeloid leukemia cell differentiation protein Mcl-1 (Homo sapiens, UniProt Q07820); type: functional
Protein skinhead-1 = target: T4, Protein skinhead-1 (Caenorhabditis elegans, UniProt P34707); type: functional
T4 sequence (P34707 whole entry): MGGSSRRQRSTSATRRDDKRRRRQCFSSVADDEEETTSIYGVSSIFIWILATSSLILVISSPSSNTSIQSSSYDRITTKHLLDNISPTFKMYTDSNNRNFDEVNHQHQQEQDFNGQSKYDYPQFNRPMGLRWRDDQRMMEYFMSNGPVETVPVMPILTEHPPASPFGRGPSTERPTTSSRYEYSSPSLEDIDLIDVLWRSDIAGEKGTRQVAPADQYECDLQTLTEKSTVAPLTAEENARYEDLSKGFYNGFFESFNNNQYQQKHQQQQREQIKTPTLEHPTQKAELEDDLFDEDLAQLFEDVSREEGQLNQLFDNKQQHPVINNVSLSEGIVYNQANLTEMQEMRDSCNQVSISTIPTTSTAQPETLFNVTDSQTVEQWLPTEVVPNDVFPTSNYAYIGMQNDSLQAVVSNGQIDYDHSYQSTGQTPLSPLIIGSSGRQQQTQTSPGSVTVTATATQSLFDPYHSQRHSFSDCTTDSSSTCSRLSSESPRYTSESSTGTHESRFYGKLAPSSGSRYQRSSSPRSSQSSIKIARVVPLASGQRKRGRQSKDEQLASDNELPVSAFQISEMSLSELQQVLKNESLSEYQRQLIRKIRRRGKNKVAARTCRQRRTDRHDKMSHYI

[16] = target: Luciferin 4-monooxygenase (Photinus pyralis, UniProt P08659); assay: firefly luciferase enzyme inhibitors, dose response, biochemical, luminescence (AID 1891)
[17] = Luminescence Cell-Based Dose Confirmation HTS to Identify Inhibitors of Platelet Dense Granule Release. [Related pubchem assays: 1663 (Primary HTS), 1678 (Summary of Project)]; type: functional
[18] = HepG2 cell cytotoxicity, dose response, cytotoxicity control for Shn3 inhibitor project, CellTiter-Glo, cherry-picked (AID 624134); type: functional, cell-based
[19] = Shn3 3'UTR reporter inhibitors, dose response, cell-based, Clone20 osteoblasts, firefly luciferase, cherry-picked (AID 624132); type: functional;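 further: firefly luciferase luminescence from reporter carrying the Shn3 3'UTR in osteoblasts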
[20] = reduction of Shn3 3'UTR firefly luciferase signal, dose response, Schnurri-3 inhibitor project, cell-based, Clone20 osteoblasts, cherry-pick, set 2 (AID 720490); type: functional;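 further: actives lower the luminescence signal as inhibitors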
[21] = control 3'UTR Renilla luciferase suppression, dose response, counter-screen for Shn3 inhibitor project, cell-based, Clone20-Shn3RL, cherry-picked (AID 624133); type: functional
[22] = target: T5, Small ubiquitin-related modifier 1 (Homo sapiens, UniProt P63165); assay: inhibitors of SUMO1 peptide binding, dose response, biochemical, fluorescence polarization, uHTS hits (AID 624382); type: functional; details: read-out: IC50_Mean
Kallikrein-7 = Kallikrein-7 (Homo sapiens, UniProt P49862); assay: Fluorescence Intensity-based biochemical primary high throughput dose response assay to identify activators of kallikrein-7 (K7) zymogen.
[23] = target: T5, Small ubiquitin-related modifier 1; assay: inhibitors of SUMO1 partner interactions, dose response, biochemical, FRET (AID 624383); type: functional; details: read-out: IC50_Mean
[24] = P. falciparum Dd2 growth inhibitors, dose response, SYBR Green, dry powder samples, set 9 (AID 1159568); type: functional, cell-based
Paired box protein Pax-8 = Paired box protein Pax-8 (Homo sapiens, UniProt Q06710); assay: inhibitors of PAX8-driven TPO luciferase reporter, dose response, RMG-I cells, cherry-pick (AID 687027); type: functional, cell-based;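 further: luciferase reporter driven by Pax8 target thyroperoxidase promoter measured by SteadyGlo luminescence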
[25] = target: T2, Oxysterols receptor LXR-beta; type: functional, cell-based; remark: listed apart in the source
cells [26] = assay: cells; remark: listed apart in the source
[27] = Dose-response inhibition of insulin secretion in a rat insulinoma line at 5 mM glucose (AID 1117331); type: functional, cell-based; details: INS-1E
[28] = P. falciparum Dd2 growth inhibitors, dose response, SYBR Green, cherry-picked samples (AID 1159567); type: functional, cell-based
[29] = HepG2 cell cytotoxicity, dose response, cytotoxicity control, cherry-picked samples (AID 1159577); type: functional, cell-based

## CCCCCCCN1C(Nc2ccccc2)=NC[C@@H]1CC(C)C
[1]
  IC50: > 96.6 µM (inactive)

## O=C(O)CSc1ccnc2cc(Cl)ccc12
Major prion protein
  IC50: 4.04 µM (active)
Cells [2]
  IC50: > 138 µM (inactive)

## O=C(NCc1nc2ccccc2[nH]1)C1=C[C@H](c2ccccc2)C[C@H](OCc2ccc(CO)cc2)O1
[3]
  IC50: > 83.3 µM (inactive)

## CN1CCC(OC(=O)c2cccc(Cl)c2)CC1
[4]
  EC50: > 60 µM (not active)
Cells [5]
  EC50: 0.102 µM (active)
[6]
  EC50: < 0.1 µM (active)
[7]
  AC50: 1.3 µM (active)

## COc1ccc(OCC(O)CNC(=O)Nc2ccc(Cl)cc2)cc1 (configuration not stated)
[3]
  IC50: > 83.3 µM (inactive)
[8]
  IC50: 83.3 µM (inactive)
[9]
  IC50: 4.66 µM (active)
[10]
  IC50: 4.39 µM (active)

## Cc1ccc2c(c1)N=C(c1ccccc1)CC(C(Cl)Cl)=N2
[11]
  EC50: > 67.5 µM (inactive)

## CCN(CC)Cc1c(O)ccc2cc(-c3nc4ccccc4n3C)c(=O)oc12
[12]
  AC50: 1.8 µM (active)

## O=C(Nc1cccnc1)c1ccc(COc2ccccc2Cl)o1
[13]
  IC50: 12.1 µM (active)

## COc1cc(CCC(=O)Nc2cccc(C(F)(F)F)c2)cc(OC)c1OC
Prothrombin
  IC50: > 50 µM (not active)

## Cc1c(N=c2c(=O)c3ccccc3c2=O)c(=O)n(-c2ccccc2)n1C
[14]
  IC50: > 100 µM (not active)

## O=C(CSc1nnc(-c2ccco2)c(-c2ccco2)n1)c1ccccc1
[1]
  IC50: > 96.6 µM (inactive)
[15]
  IC50: 3.19 µM (active)

## COc1cccc(-c2noc(-c3cccs3)n2)c1
Protein skinhead-1
  IC50: 13.7 µM (active)
[16]
  EC50: 7.26 µM (active)
[17]
  EC50: > 112 µM (not active)
[11]
  EC50: > 67.6 µM (inactive)

## COc1cccc(-n2c(C)nc3c(cnn3-c3ccc(Cl)cc3)c2=O)c1
[18]
  AC50: 61.4 µM (active)
[19]
  AC50: 0.391 µM (active)
[20]
  AC50: 2.14 µM (active)
[21]
  AC50: 2.98 µM (active)

## O=C(NC(=S)Nn1cnnc1)c1ccccc1Cl
Prothrombin
  IC50: > 50 µM (not active)

## CN(Cc1ccccc1)S(=O)(=O)c1ccc(Cl)c(C(=O)NCCc2ccccn2)c1
[13]
  IC50: 2.5 µM (active)

## O=C(Cc1cc(=O)oc2cc(O)ccc12)NN=Cc1ccc(N(CCCl)CCCl)cc1
[22]
  IC50: > 66.6 µM (inactive)
Kallikrein-7
  EC50: > 23.2 µM (inactive)
[23]
  IC50: 8.3 µM (active)

## Cc1cccn2c(=O)c3cc(C(=O)N4CCOCC4)n(C)c3nc12
Kallikrein-7
  EC50: > 2.58 µM (active)

## C[C@@H]1CN([C@@H](C)CO)C(=O)c2cc(N(C)C)ccc2O[C@@H](C)CCCCO[C@H]1CN(C)S(=O)(=O)c1ccc(F)cc1
[24]
  AC50: 19.4 µM (active)
Paired box protein Pax-8
  AC50: 6.76 µM (active)

## CCOC(=O)c1cc(-c2cccc(O)c2)oc1C
[25]
  EC50: > 67.5 µM (inactive)
Cells [26]
  EC50: > 67.5 µM (inactive)

## C[C@@H](C1=C(CCN(C)C)Cc2ccccc21)c1ccccn1
[27]
  IC50: 8.41 µM (inactive)

## COc1cc(CN2C[C@@H]3N[C@H](C2)[C@H]3c2ccc(/C=C/c3ccccc3)cc2)cc(OC)c1
[28]
  AC50: 2.11 µM (active)
[29]
  AC50: 7.85 µM (active)

## C(=C\c1ccc([C@@H]2[C@@H]3CN(Cc4nccs4)C[C@H]2N3)cc1)/c1ccccc1
[28]
  AC50: 3.67 µM (active)
[29]
  AC50: 7.83 µM (active)

## O=C(N/N=C/c1ccc([N+](=O)[O-])o1)c1cn(-c2ccccc2)nc1-c1ccccc1
[4]
  EC50: > 60 µM (not active)
Cells [5]
  EC50: 0.054 µM (active)
[6]
  EC50: < 0.1 µM (active)

## C[C@@H]1CCCCO[C@@H](CN(C)S(=O)(=O)c2ccc(F)cc2)[C@H](C)CN([C@H](C)CO)C(=O)c2cc(N(C)C)ccc2O1
[24]
  AC50: 4.62 µM (active)

## CCN1CCCC(OC(=O)C(c2ccccc2)c2ccccc2)C1 (configuration not stated) [PIPERIDOLATE HYDROCHLORIDE]
[27]
  IC50: 18.2 µM (inactive)
